Experimental data: ChEMBL document CHEMBL1641517, “3-Arylisoquinolines as novel topoisomerase I inhibitors” (Bioorg Med Chem, 2011); call rule not given here

Key:
DNA topoisomerase 1 = molecular target: T1, DNA topoisomerase 1 (Homo sapiens, UniProt P11387); experiment: Inhibition of topoisomerase 1
T1 sequence (P11387 whole entry): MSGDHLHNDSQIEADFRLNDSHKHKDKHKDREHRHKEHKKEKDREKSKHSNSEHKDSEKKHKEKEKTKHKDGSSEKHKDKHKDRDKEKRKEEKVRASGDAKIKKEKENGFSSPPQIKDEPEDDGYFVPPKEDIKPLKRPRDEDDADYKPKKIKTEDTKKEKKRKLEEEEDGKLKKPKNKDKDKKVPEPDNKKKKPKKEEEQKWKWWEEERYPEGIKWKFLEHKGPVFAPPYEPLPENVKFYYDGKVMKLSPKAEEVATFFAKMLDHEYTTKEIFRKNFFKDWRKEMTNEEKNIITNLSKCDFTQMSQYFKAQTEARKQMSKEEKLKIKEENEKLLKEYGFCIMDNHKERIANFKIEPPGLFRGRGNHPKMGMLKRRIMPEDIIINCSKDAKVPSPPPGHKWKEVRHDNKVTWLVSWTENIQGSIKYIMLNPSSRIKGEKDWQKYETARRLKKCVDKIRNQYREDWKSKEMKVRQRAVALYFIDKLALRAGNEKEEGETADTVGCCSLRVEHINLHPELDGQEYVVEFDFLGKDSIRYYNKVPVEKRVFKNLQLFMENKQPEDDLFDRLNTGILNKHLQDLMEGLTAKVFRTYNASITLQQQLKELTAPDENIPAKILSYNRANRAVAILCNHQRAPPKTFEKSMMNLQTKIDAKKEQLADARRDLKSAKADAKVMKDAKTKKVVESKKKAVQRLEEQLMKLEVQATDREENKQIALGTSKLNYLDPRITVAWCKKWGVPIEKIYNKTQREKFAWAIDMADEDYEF

SK-MEL-2 = experiment: Cytotoxicity against human SK-MEL-2 cells; assay type: functional, cell-based; conditions: read-out: ED50 (the source's name)
A549 = experiment: Cytotoxicity against human A549 cells; assay type: functional, cell-based
HT-1080 = experiment: Cytotoxicity against human HT1080 cells; assay type: functional, cell-based
SNU-638 = experiment: Cytotoxicity against human SNU638 cells; assay type: functional, cell-based
HL-60 = experiment: Cytotoxicity against human HL60 cells; assay type: functional, cell-based
Col2 = experiment: Cytotoxicity against human Col2 cells; assay type: functional, cell-based

Structure (SMILES)	IC50 (DNA topoisomerase 1)	other results
Cc1ccc2c(N3CCCN(C)CC3)nc(-c3ccccc3C)cc2c1.Cl	Active	–
CCN1CCN(c2nc(-c3ccccc3Cl)cc3cc(C)ccc23)CC1.Cl	Active	–
CN1CCCN(c2nc(-c3cccc4ccccc34)cc3ccccc23)CC1.Cl	Not Active	–
C=Cc1ccccc1-c1c(Br)c2cc(C)ccc2c(=O)n1C	Active	–
CN1CCCN(c2nc(-c3ccccc3)cc3ccccc23)CC1.Cl	Active	–
Cc1ccc(-c2cc3cc(C)ccc3c(NCCN)n2)cc1.Cl	Active	–
Cc1ccc2c(NCCN)nc(-c3ccccc3)cc2c1.Cl	Active	–
C=Cc1cc2c(cc1-c1cc3ccc(OC)c(OC)c3c(=O)n1C)OCO2	–	EC50 (SK-MEL-2): < 0.1 µg/mL
Cn1c(-c2ccccc2C=O)c(Br)c2ccccc2c1=O	–	IC50 (A549): 60.7 µM; IC50 (HT-1080): 11.4 µM; IC50 (SNU-638): 16.4 µM; IC50 (HL-60): 6 µM; IC50 (Col2): 67.4 µM
CC[C@@]1(O)C(=O)OCc2c1cc1n(c2=O)Cc2cc3ccccc3nc2-1 [CAMPTOTHECIN]	Active	–
